Tests used:
DRG neurons = type: cell-based, adult mouse (Swiss, Mus musculus); conditions: positive control, 0.1%, 5–75 min; mean ± S.E.M., n = 4
Method: The CHO epithelial cell line was cultured as previously described. Primary cultures of DRG neurons were performed using adult female Swiss mice (Mus musculus, 8–12 weeks of age and 25–32 g body weight), purchased from Janvier Elevage (Le Genest-Saint-Isle, France) and acclimatized at the CEA animal facility for at least 48 hr before the experiments. All experimental procedures on mice were permitted by the Animal Ethics Committee of the CEA and the French General Directorate for Research and Innovation (project APAFIS#26651-2020072011192542v1, authorized for E.B. on 20 July 2020 for 5 years). […]
Cell viability was quantified by propidium iodide and trypan blue dye exclusion assays. […] The percentage of viable cells (i.e., the number of non-fluorescent cells relative to the number of total cells) was determined using the ImageJ 1.53g software (National Institutes of Health, Bethesda, MD, USA). At the end of the experiments, the total fluorescence of each well (function of the amount of propidium iodide-positive dead cells) was measured using a CLARIOstar® Plus microplate reader (BMG Labtech, Champigny-Sur-Marne, France).
The data are expressed as the means ± standard error of the mean (S.E.M.) of n different experiments. […]

[1] = system: NaV channels and voltage-sensitive potassium (KV) channels; conditions: initially NaV channels, later KV channels; ref [28],[29],[30],[31],[32]; cited from earlier work
Excerpt: (§1) To the best of our knowledge, such an effect of the crotalid peptide on cell plasma membrane constituents has never been described in the literature. The simplest explanation is that crotalphine interacts also with lipid membrane constituents since interactions between gating modifier toxins and the lipid membranes surrounding the channel have been previously evidenced. It is therefore likely that, in addition to the Na^+ channel subtype NaV1.7, the crotalid peptide targets also a second cell plasma membrane component. Further experiments are still needed to identify this second me ...

certain cells = conditions: ref [28],[29],[30],[31],[32]; cited from earlier work
Excerpt: as §1

[2] = system: NaV1.7 component of the TTX-sensitive Na^+ current of DRG neurons; type: cell-based, adult mouse (Swiss, Mus musculus)
hNaV1.7 = conditions: cited from earlier work
hNaV1.1 = conditions: ref [22],[23],[24]; cited from earlier work
hNaV1.2–1.6 and hNaV1.8 = conditions: ref [22],[23],[24]; cited from earlier work

Compound: triton X-100
- decrease in viability of DRG neurons (DRG neurons): 89.1 ± 1.7%

Compound: crotamine: the most abundant protein in the Crotalus durissus terrificus's venom (YKQCHKKGGHCFPKEKICLPPSSDFGKMDCRWRWKCCKKGSG; UniProt Q9PWF3 23-64, looked up)
- effect on functioning of ionic channels [1]: alter the functioning of ionic channels
- effect on cell viability (certain cells): decrease the viability of certain cells

Compound: ProTx-II: tarantula venom peptide, a well-known selective inhibitor of the NaV1.7 channel subtype
- decrease in the TTX-sensitive Na^+ current amplitude ([2]; 10 nM, n = 3, unpublished data): 79.2 ± 4.8%
- IC50 (hNaV1.7): 0.3 to 1.6 nM
- IC50 (hNaV1.1): 16 nM
- IC50 (hNaV1.2–1.6 and hNaV1.8): > 25 nM

Compound: NC1=N[C@H](O)[C@H]2[C@H]3O[C@]4(O)O[C@@H]([C@@H](O)[C@@]2(N1)[C@@H]4O)[C@]3(O)CO [TTX, tetrodotoxin]
- Na^+ current decreased to % of the initial peak amplitude [2]: 8.1 ± 5.1%
- recovery of the current after washout [2]: 83.5 ± 4.5%
